Earlier results, collected in patent publication US20020032245A1, “Resinate composition” (priority 2000, published 2002).

solubility of indomethacin in water: 14 ppm
Compound: COc1ccc2c(c1)c(CC(=O)O)c(C)n2C(=O)c1ccc(Cl)cc1 [indomethacin]
